Assay [1] concerns the target Histamine H1 receptor (Homo sapiens, UniProt P35367).
Assay [2] addresses T1, Adenosine receptor A3 (Homo sapiens, UniProt P0DMS8).
T1 sequence (P0DMS8 whole entry): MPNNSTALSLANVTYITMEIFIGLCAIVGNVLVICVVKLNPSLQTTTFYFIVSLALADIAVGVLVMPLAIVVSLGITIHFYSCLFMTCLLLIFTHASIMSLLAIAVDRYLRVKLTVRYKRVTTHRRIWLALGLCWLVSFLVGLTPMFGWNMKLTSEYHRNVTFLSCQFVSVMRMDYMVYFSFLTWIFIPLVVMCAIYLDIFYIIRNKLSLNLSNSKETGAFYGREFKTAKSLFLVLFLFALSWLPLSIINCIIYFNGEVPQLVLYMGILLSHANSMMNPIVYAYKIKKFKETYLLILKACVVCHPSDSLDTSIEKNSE

Assay [3] has as its target T2, 5-hydroxytryptamine receptor 1A (Homo sapiens, UniProt P08908).
T2 sequence (P08908 whole entry): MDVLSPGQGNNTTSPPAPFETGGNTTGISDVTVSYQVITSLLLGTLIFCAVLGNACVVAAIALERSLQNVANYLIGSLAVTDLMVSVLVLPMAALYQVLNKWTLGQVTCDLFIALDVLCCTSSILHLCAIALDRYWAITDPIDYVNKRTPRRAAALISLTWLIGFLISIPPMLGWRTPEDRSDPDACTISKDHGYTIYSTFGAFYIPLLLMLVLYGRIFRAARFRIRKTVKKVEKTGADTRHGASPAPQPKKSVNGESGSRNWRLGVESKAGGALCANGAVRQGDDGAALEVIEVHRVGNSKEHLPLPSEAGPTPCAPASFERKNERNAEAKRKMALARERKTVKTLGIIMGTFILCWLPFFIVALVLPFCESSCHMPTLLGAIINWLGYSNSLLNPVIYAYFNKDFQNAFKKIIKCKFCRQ

The target in assay [4] is T3, Cannabinoid receptor 1 (Homo sapiens, UniProt P21554). The class given is functional, cell-based.
T3 sequence (P21554 whole entry): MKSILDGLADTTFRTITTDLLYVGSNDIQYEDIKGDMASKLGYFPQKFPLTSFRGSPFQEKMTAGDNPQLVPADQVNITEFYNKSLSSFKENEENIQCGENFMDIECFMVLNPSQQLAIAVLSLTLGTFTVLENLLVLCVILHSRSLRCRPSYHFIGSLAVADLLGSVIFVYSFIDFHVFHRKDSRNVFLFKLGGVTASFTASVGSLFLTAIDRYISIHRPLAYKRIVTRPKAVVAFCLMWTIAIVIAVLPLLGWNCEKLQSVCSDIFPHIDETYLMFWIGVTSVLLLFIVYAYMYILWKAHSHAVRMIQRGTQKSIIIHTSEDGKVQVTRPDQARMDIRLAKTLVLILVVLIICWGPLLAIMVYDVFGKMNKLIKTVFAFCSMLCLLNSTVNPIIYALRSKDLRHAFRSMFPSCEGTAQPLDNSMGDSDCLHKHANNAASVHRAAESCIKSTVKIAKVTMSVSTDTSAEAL
Assay [5] addresses T4, Alpha-1A adrenergic receptor (Homo sapiens, UniProt P35348).
T4 sequence (P35348 whole entry): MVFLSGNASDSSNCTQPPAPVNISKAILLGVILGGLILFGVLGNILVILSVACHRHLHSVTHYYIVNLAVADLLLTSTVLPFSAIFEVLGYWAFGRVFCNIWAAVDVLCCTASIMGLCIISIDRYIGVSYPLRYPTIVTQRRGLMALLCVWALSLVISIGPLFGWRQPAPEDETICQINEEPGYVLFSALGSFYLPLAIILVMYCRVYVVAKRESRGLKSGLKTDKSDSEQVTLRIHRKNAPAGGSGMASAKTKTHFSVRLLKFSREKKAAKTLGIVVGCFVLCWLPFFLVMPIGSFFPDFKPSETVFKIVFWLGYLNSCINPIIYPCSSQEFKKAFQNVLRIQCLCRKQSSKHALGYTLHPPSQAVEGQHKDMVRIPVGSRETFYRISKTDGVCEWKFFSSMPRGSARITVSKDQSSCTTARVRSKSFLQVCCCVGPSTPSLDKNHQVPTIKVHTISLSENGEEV

Assay [6] deals with 3',5'-cyclic-AMP phosphodiesterase 4A (Homo sapiens, UniProt P27815). The class given is functional.
3',5'-cyclic-AMP phosphodiesterase 4A, sequence (P27815 whole entry): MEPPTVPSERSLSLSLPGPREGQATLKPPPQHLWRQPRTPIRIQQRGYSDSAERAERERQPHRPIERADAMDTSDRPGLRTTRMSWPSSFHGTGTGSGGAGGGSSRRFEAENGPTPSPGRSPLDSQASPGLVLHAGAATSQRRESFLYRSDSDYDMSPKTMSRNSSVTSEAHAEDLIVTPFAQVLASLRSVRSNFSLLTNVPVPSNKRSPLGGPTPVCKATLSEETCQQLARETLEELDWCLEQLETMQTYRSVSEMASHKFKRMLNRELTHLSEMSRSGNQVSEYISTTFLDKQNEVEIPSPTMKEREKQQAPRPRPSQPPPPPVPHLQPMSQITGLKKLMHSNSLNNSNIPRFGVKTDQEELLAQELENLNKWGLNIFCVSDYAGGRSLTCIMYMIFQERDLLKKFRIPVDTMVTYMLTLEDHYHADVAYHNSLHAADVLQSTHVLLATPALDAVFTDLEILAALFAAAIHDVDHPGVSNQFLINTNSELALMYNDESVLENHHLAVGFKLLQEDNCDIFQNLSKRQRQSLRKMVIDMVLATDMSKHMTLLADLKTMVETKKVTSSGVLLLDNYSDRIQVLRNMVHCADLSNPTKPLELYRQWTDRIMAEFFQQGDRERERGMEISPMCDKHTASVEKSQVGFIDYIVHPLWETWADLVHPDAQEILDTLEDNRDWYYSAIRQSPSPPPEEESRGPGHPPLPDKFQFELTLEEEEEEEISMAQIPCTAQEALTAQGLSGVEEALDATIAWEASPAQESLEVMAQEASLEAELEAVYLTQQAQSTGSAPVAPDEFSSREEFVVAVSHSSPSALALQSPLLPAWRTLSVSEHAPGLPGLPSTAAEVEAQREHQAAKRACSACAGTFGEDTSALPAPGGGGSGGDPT
Assay [7] concerns the target Histamine H2 receptor (Homo sapiens, UniProt P25021). It is filed as functional, cell-based.
Assay [8] concerns the target T2, 5-hydroxytryptamine receptor 1A. The class given is functional, cell-based.
Assay [9] deals with Beta-1 adrenergic receptor (Homo sapiens, UniProt P08588). The class given is functional.
Beta-1 adrenergic receptor, sequence (P08588 whole entry): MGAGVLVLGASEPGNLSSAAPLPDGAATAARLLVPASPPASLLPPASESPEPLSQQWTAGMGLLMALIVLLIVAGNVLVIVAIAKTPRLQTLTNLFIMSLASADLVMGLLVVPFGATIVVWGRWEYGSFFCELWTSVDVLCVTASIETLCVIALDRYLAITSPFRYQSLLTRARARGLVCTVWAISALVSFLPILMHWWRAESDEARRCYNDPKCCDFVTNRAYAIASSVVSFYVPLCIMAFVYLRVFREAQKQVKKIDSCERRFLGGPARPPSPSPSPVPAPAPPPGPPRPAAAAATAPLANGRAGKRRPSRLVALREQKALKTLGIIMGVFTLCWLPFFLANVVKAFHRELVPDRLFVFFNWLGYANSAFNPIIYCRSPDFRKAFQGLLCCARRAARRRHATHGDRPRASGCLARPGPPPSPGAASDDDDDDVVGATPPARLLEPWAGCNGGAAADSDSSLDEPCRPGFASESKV
For assay [10], the target named is T5, B2 bradykinin receptor (Homo sapiens, UniProt P30411).
T5 sequence (P30411 whole entry): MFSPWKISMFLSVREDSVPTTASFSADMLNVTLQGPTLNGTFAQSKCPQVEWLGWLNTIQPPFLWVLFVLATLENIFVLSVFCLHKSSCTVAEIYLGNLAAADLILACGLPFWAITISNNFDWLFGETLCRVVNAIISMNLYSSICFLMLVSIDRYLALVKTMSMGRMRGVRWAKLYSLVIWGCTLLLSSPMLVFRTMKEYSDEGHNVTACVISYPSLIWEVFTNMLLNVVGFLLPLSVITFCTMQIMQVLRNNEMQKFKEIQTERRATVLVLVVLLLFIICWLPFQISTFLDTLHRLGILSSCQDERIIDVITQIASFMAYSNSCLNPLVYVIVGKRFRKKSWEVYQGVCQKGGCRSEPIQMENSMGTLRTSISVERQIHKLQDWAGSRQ

Assay [11] addresses T3, Cannabinoid receptor 1. It is filed as functional, cell-based. The source holds these as a separate data set.
In assay [12] the target is Sodium-dependent serotonin transporter (Homo sapiens, UniProt P31645).
Sodium-dependent serotonin transporter, sequence (P31645 whole entry): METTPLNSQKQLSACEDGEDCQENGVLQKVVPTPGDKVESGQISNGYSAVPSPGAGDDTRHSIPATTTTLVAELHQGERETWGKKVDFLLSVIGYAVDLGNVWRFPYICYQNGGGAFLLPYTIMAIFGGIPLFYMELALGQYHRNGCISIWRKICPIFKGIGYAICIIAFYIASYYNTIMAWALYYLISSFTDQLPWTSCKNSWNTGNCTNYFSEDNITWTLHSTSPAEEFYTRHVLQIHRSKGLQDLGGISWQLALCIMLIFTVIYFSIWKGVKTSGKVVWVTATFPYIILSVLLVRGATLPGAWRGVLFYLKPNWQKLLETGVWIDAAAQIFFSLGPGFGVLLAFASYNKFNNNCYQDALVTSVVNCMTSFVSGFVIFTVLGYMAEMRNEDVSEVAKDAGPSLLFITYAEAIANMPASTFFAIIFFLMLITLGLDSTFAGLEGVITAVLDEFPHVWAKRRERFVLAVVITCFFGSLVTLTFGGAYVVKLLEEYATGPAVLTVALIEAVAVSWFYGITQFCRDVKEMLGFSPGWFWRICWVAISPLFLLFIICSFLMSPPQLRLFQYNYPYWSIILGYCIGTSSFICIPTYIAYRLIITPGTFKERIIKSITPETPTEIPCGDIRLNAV
In assay [13] the target is Gamma-aminobutyric acid receptor subunit alpha-1 (Rattus norvegicus, UniProt P62813).
The target of assay [14] is Acetylcholinesterase (Homo sapiens, UniProt P22303). It is filed as functional.
Assay [15] addresses Prostaglandin G/H synthase 1 (Homo sapiens, UniProt P23219). The class given is functional.
Assay [16] concerns the target D(1A) dopamine receptor (Homo sapiens, UniProt P21728).
Assay [17] concerns the target Melanocortin receptor 4 (Homo sapiens, UniProt P32245).
Assay [18] deals with T4, Alpha-1A adrenergic receptor. The class given is functional, cell-based.
The target in assay [19] is 5-hydroxytryptamine receptor 2A (Homo sapiens, UniProt P28223). It is filed as functional, cell-based.
5-hydroxytryptamine receptor 2A, sequence (P28223 whole entry): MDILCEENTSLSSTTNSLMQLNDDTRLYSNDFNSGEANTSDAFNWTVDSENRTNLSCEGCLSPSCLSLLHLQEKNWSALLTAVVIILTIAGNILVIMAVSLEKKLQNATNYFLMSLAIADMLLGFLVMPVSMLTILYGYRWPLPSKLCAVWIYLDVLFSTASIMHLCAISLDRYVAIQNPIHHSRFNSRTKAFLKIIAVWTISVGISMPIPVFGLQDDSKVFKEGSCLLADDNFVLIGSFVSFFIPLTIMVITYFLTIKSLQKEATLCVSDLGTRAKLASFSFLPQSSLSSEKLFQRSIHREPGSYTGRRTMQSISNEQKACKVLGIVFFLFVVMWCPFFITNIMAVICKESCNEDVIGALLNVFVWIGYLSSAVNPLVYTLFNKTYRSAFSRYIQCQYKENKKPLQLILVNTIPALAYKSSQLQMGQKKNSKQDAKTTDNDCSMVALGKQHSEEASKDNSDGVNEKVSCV

For orientation: AC50 means the midpoint of the concentration-response curve, whichever way the signal moves. High values mean weaker potency, low ones greater potency.
Also: assay procedure not described here.

D(1A) dopamine receptor, sequence (P21728 whole entry): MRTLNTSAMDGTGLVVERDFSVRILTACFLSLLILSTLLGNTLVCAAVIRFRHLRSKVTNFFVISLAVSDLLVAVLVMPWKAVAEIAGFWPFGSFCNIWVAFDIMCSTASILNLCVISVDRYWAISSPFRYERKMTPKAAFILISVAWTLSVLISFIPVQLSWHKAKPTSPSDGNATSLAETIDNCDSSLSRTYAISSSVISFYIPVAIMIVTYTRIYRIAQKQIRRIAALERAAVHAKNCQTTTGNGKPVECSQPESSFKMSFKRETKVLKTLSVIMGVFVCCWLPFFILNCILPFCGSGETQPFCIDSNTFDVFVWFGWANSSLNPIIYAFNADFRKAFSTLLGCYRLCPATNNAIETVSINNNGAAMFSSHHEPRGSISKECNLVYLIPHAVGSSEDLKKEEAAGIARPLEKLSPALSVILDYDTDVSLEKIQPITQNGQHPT
Melanocortin receptor 4, sequence (P32245 whole entry): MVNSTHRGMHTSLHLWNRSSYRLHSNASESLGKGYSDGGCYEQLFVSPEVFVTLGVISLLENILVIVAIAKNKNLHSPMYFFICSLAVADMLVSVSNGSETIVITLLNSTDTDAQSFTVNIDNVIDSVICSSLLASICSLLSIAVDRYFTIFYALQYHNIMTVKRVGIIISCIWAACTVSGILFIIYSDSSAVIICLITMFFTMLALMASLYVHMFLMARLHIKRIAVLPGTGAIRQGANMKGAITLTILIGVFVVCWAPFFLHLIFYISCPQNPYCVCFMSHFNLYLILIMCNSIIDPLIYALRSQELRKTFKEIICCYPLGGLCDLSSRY
Histamine H1 receptor, sequence (P35367 whole entry): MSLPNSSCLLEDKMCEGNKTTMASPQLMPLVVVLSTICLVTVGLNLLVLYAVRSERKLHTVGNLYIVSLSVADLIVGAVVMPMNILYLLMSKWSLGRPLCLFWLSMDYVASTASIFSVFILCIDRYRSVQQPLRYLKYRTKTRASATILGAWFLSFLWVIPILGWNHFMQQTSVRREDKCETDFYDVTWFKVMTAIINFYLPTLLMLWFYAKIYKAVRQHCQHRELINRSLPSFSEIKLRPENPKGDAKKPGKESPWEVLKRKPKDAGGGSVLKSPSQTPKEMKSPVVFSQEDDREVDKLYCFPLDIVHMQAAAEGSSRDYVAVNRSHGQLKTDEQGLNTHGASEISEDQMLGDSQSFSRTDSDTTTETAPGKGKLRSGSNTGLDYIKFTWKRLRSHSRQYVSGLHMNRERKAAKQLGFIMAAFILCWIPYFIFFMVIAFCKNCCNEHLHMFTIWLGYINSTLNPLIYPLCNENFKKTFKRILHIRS
Histamine H2 receptor, sequence (P25021 whole entry): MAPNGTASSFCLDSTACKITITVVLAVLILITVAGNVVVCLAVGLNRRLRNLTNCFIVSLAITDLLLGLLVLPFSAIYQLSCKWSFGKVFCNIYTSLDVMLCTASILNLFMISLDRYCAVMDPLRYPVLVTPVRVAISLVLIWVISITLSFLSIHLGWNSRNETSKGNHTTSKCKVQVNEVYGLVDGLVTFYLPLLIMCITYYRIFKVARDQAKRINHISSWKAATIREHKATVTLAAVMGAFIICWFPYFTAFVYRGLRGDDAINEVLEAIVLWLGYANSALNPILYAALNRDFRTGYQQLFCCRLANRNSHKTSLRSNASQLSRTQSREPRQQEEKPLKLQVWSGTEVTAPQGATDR

Regarding `CN(CCOc1ccc(NS(C)(=O)=O)cc1)CCc1ccc(NS(C)(=O)=O)cc1` [DOFETILIDE], the AC50 in assay [1] was above 10 µM; in [2] it was above 30 µM; in assay [3], above 30 µM; in assay [4] it was above 30 µM; in assay [5], above 10 µM; in assay [6], above 30 µM. Moreover, the concentration at half-maximal activity (AC50) in assay [7] was above 30 µM; in assay [8] it was above 10 µM; in assay [9], above 10 µM; in assay [10] it was above 30 µM; in assay [11], above 30 µM; in [12] it was above 10 µM. The concentration at half-maximal activity (AC50) in assay [13] is above 10 µM; in assay [14] it was 13.6 µM; in assay [15], above 30 µM; in [16], above 30 µM; in [17], above 30 µM; in assay [18], above 30 µM. Further, the AC50 in [19] was above 30 µM.

The values above are taken from ChEMBL document CHEMBL5291721, “A preclinical secondary pharmacology resource illuminates target-adverse drug reaction associations of marketed drugs” (Nat Commun, 2023).
